Reference: patent EP1338280A1, “COMBINATION OF AMINES AND VANADIUM (IV)/(V) COMPOUNDS FOR THE TREATMENT AND/OR PREVENTION OF DIABETES MELLITUS” (priority 2000, dated 2002)

Tests used:
isolated rat adipocytes = assay: Hexose transport ([3H]-2-deoxyglucose uptake) in isolated rat adipocytes; format: cell-based; parameters: 2-deoxyglucose uptake (stimulatory effect): dose or concentration left out as unconfirmed; details: for 2-deoxyglucose uptake (stimulatory effect): benzylamine or orthovanadate alone, 45 min incubation, ten-minute uptake; for glucose transport: 45 min preincubation of fat cells with increasing concentrations, 5-min 2-DG uptake
Protocol: Adipocyte isolation. Male Wistar rats (200-260 g) were sacrificed in a fed state, and the internal epididymal adipose tissues was dissected out and digested in Krebs-Ringer buffer as described (cf. C. Carpene et al., Biochem. PharmacoL 1990, voL 40, pp. 437-445). Adipose cells isolated is such a way were used in subsequent studies.
Hexose transport After a preincubation period of 45 min at 37 °C in vials containing 400 µl of cell suspension in KRBH with the tested products, [^3H]-2-deoxyglucose was added at a final concentration of 0.1 mM (approx. 1,300,000 d.p.m./vial). The assays were further incubated for 5 or 10 min and then stopped with 100 µl of cytochalasin B. Aliquots (200 µl) of the cell suspension were centrifuged in microtubes as described (cf. J.M. Olefsky, Biochem. J. 1978, voL 172, pp. 137-145). After centrifugation, the fat cells (upper part of the tubes) were placed in scintillation vials and the incorporated radioactivity was counted.

GLUT4 = GLUT4 translocation: Western blot of GLUT4 in plasma membrane and low density microsome fractions of rat adipocytes; format: cell-based; parameters: abundance of GLUT4 in plasma membranes: dose or concentration left out as unconfirmed; details: for abundance of GLUT4 in plasma membranes: 45 minutes incubation, benzylamine or orthovanadate alone
Protocol: To verify whether the stimulation of glucose transport in rat adipocytes may be explained by a translocation of the insulin-sensitive glucose transporters from an internal site to the plasma membrane, as it is known for insulin, the amount of GLUT4 protein was determined in plasma membrane (PM) and low density microsome (LDM) fractions. […] These increases in GLUT4 content occurred without any significant change in the content of β1-integrin, a constitutive PM protein. Changes in the GLUT4 content of LDM mirrored, to a lesser extent, those reported in the PM (basal LDM content was decreased by 29 % and 12 % with insulin and tyramine plus orthovanadate respectively).
This study was carried out in order to determine whether the stimulation of glucose transport induced by the combination of benzylamine and orthovanadate was a consequence of alterations in the abundance of GLUT4 glucose carriers in the cell surface from adipose cells. Thus, isolated rat adipocytes were incubated in the absence or in the presence of insulin, benzylamine ([…]), orthovanadate ([…]) or the combination of benzylamine and orthovanadate, and 45 minutes later cells were homogenized and subjected to subcellular membrane fractionation. […] However, the incubation of cells with benzylamine and orthovanadate caused a 2.3-fold increase in the presence of GLUT4 in plasma membrane fractions. The effects of insulin or the combination benzylamine and orthovanadate on GLUT4 abundance in plasma membranes were specific and the plasma membrane marker β1-integrin remained unaltered after incubation with these agents. The recruitment of GLUT4 to the plasma membranes detected by insulin or the combination of benzylamine and orthovanadate was concomitant with a reduction of GLUT4 abundance in light microsomes. This was consistent with the view that benzylamine and orthovanadate translocate GLUT4 to the plasma membrane in isolated rat adipocytes.

[1] = test system: streptozotocin-induced diabetic rats; assay: Chronic administration in streptozotocin-induced diabetic rats; format: in vivo; details: for food and water consumption / weight of epididymal adipose tissue (adiposity): chronic treatment of diabetic rats
Protocol: (§1) Based on the finding of potent insulin-like effects of in vitro incubation of benzylamine and vanadate, the chronic administration of these compounds in diabetic rats was tested. To this end, streptozotocin-induced diabetic rats were implanted subcutaneously with osmotic minipumps releasing benzylamine (84 µmol/kg/day) or were sham-operated. […] A group of animals was also subjected to daily i.p. injection of vanadate (50 µmol/kg body wt) for two weeks.
In other studies, rats were daily injected intraperitoneally with 25 µmol/kg vanadate for the first week and with 50 µmol/kg for the second week. […] However, the combination of benzylamine and vanadate reduced hyperglycemia in diabetic rats during the second week of treatment (FIG. 7).
The chronic treatment with benzylamine and vanadate caused a substantial decrease in food and water consumption which returned to normal levels and an increase in the weight of epididymal adipose tissue. All these variations occurred in the absence of changes in body weight. The effects on adiposity or food and water intake were not detected when benzylamine or vanadate was administered alone. Furthermore the normalisation of glycemia caused by chronic treatment with both benzylamine and vanadate takes place in the absence of changes in plasma insulin concentrations.

[2] = format: physicochemical
Protocol: as §1

[3] = vanadate i.p. daily 25 µmol/kg first week and 50 µmol/kg second week, benzylamine 84 µmol/kg

NCc1ccccc1 [benzylamine]
2-deoxyglucose uptake (stimulatory effect) (isolated rat adipocytes): no stimulatory effect | abundance of GLUT4 in plasma membranes (GLUT4): did not alter | food and water consumption [1]: not detected | weight of epididymal adipose tissue (adiposity) [1]: not detected | glycemia [1, 3]: remained hyperglycemic | stability in implanted osmotic minipumps [2]: stable for two weeks

OO [hydrogen peroxide]
glucose transport (isolated rat adipocytes): dose-dependently stimulated | activation at 1000 µM (isolated rat adipocytes; Rattus norvegicus, Adipocyte, 0.75 h, 1 mM H2O2, preincubation 45 min, n = 23, read-out: effect relative to the maximal insulin effect): 46% | fold induction at 1000 µM (isolated rat adipocytes; Rattus norvegicus, Adipocyte, 0.75 h, 1 mM H2O2, preincubation 45 min, n = 23, read-out: factor by which basal transport is multiplied): 5 ± 0.8

[Na+].[Na+].[Na+].[O]=[V]([O-])([O-])[O-] [orthovanadate, sodium orthovanadate Na3VO4]
stimulation of glucose transport relative to that of 100 nM insulin (maximal insulin effect) (isolated rat adipocytes; 1 mM tyramine, 0.1 mM orthovanadate, n = 40): 5 ± 1% | 2-deoxyglucose uptake (stimulatory effect) (isolated rat adipocytes): did not stimulate | basal or insulin-stimulated glucose transport (isolated rat adipocytes; orthovanadate alone 0.1 mM): did not affect | abundance of GLUT4 in plasma membranes (GLUT4): did not alter | amount of GLUT4 protein in the PM (GLUT4; Western blot, orthovanadate 0.1 mM, n = 3): 103 ± 8% | food and water consumption [1]: not detected | weight of epididymal adipose tissue (adiposity) [1]: not detected | glycemia ([1]; vanadate 50 µmol/kg body wt daily i.p. for two weeks, benzylamine 84 µmol/kg/day by osmotic minipumps): moderate reduction | glycemia [1, 3]: remained hyperglycemic

CNC[C@H](O)c1cccc(O)c1 [phenylephrine]
glucose transport (isolated rat adipocytes): not activated

NNC(N)=O [semicarbazide]
inhibition at 100 µM (isolated rat adipocytes; Rattus norvegicus, Adipocyte, semicarbazide 0.1 mM, read-out: inhibition of the glucose transport promoted by 1 mM tyramine plus orthovanadate): 59 ± 7% | benzylamine-orthovanadate-stimulated 2-deoxyglucose uptake (isolated rat adipocytes; semicarbazide 1 mM): abolished | glucose transport stimulated by 1 mM hydrogen peroxide plus 0.1 mM orthovanadate (isolated rat adipocytes; semicarbazide 1 mM): unaffected

NCCc1c[nH]c2ccc(O)cc12 [serotonin]
glucose transport (isolated rat adipocytes): not activated

NCCc1ccc(O)cc1 [tyramine]
glucose transport (isolated rat adipocytes): not activated | synergism with low, ineffective dose of hydrogen peroxide on glucose transport (isolated rat adipocytes; hydrogen peroxide 0.01 mM, not shown): no synergism | synergism with low, ineffective dose of insulin on glucose transport (isolated rat adipocytes; insulin 10 pM, not shown): no synergism
